Legend:
[1] = molecular target: T1, Folate Uptake Transporter (PCFT) in Caco2 cells (Homo sapiens, UniProt Q96NT5); experiment: Folate uptake transporter inhibition in Caco2 cell line ([3H]-folic acid uptake); format: cell-based; settings: for inhibition at 50 µM: Caco-2, pH 5.5, test conc. 50 μM, read-out: Percentage inhibition (%); for effect on folate transport / uptake: Caco-2 cells, 50 μM
T1 construct: These cells express high levels of the PCFT/SLC46A1 receptor; host or cells: Caco-2
T1 sequence (Q96NT5 1-459): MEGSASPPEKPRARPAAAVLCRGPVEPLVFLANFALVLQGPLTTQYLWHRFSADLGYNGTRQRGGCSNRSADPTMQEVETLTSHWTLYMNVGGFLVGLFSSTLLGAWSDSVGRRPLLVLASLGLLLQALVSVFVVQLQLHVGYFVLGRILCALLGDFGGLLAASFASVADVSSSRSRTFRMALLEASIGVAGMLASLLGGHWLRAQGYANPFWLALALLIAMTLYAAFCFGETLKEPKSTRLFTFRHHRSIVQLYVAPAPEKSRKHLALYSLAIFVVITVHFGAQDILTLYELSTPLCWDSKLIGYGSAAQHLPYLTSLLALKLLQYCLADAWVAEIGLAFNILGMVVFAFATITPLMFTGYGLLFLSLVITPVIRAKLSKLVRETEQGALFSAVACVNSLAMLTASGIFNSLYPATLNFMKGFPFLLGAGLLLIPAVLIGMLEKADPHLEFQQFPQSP
Description: Cell plates were prepared using Caco-2 cell culture medium consisting of Dulbecco's Modified Eagle's Medium (DMEM) with high glucose and L-glutamine supplemented with: 10% FBS, 1× penicillin-streptomycin mixture and 1×non-essential amino acids (NEAA) and medium was incubated at 37° C., 5% CO2 for 0.5 hour. Plates were prepared for cell seeding. Caco-2 cells from American Type Culture Collection at passage 44 were cultivated in T-75 flasks in a cell culture incubator set at 37° C., 5% CO2, 95% relative humidity. Cells reached 80-90% confluence before detaching and splitting. Cultivated cells in T-75 flasks were rinsed with 5 mL PBS and aspirated off. Then, 3 mL trypsin/EDTA was added, and cells were incubated at 37° C. for approximately 5 minutes or until the cells detached and floated. Trypsin/EDTA was inactivate by adding excess serum containing medium. Cell suspension was removed and transferred to a conical tube and cells were pelleted by centrifugation at 120×g for 5 minutes. Cells were resuspended in seeding medium at a density of 3×10^4 cells/well in 24-well plates. The plate was incubated for 8-10 days. The medium was replaced every other day, beginning no sooner than 48 hours after initial plating.
(§1) The transport buffer (HBSS with 10 mM MES, pH 5.5) was prepared by weighing 1.952 g of MES and 0.35 g sodium hydrogen carbonate and adding into 900 mL of pure water followed by sonication to dissolve the content. Following the transfer of 100 mL of 10×HBSS into the solution. The solution was placed on a stirrer, the pH was slowly adjusted with hydrochloric acid to 5.5, and then the solution was filtered to get HBSS solution (with 10 mM MES, pH 5.5).
The [3H]-folic acid (10 nM) substrate solution was prepared using [3H]-folic acid (1 mCi/ml) diluted with pH 5.5 buffer. Next, the [3H]-folic acid (10 nM) substrate solution+test inhibitor (X μM) and the [3H]-folic acid (10 nM) substrate solution+positive control inhibitor (pemetrexed, 50 μM) were prepared. For the solution without inhibitor, DMSO was diluted with corresponding substrate solution to get the working incubation solution.
The pre-incubation solution was prepared by adding the same final concentration of test compound (X μM) and the known inhibitor (pemetrexed, 50 μM) in pH 5.5 buffer. For the solution without inhibitor, DMSO diluted with in pH 5.5 buffer was used as the vehicle control.
When the 8-10 day Caco-2 cultured cells reached confluence and were differentiated, they were ready to be used for transport studies. The Caco-2 plate was removed from the incubator, and the medium was removed from the 24-well Plates. Next, cells were washed 3 times with 300 μL of pre-warmed pH 5.5 buffer. Then, 300 μL of pre-incubation solution was added into each well and the plate was placed at 37° C. for 30 minutes. The assay was performed in duplicate. After 30 minutes pre-incubation, the pre-incubation solution was aspirated, and 300 μL of pre-warmed working incubation solution was added to start the transporter assay. After 6 minutes incubation, cells were washed by quickly adding/aspirating 300 μL of ice-cold pH 5.5 buffer 4 times. The pH 5.5 buffer was removed and 300 μL of pure water was added into each well. Freeze-thaw in liquid nitrogen and 37° C. incubator was repeated for 3 times to lyse cells. After, centrifugation at 3,300 g was performed for 30 seconds. Next, 50 μL of supernatant was transferred to Isoplate-96 Microplate. 200 μL of scintillation fluid was added to the 50 μL sample and radioactivity was measured by liquid scintillation counting in a MicroBeta 2 scintillation counter for 1 min/sample.
A BCA Kit was used to determine the protein content for each well. Bovine serum albumin at 2, 1, 0.5, 0.25, 0.125, 0.0625, 0.0313, 0.0156, 0.00781 and 0.00391 mg/mL was prepared in Phosphate Buffer Saline (PBS, pH 7.4). 10 μL of supernatant was mixed from the previous step with the same volume of PBS. […]

[2] = molecular target: T1, Folate Uptake Transporter (PCFT) in Caco2 cells; experiment: Folate uptake transporter substrate assessment in Caco2 cell line (compound uptake with and without pemetrexed); format: in vitro ADME; settings: for cell permeability: Caco-2; for Uptake Ratio(−Inhibitor/+Inhibitor): human, Caco-2, 6 min, 1 μM, pH 5.5
Description: Cell Plates were Prepared According to the Methods of Example 8 Using Caco-2 Cells from American Type Culture Collection at Passage 37.
as §1
The test compounds and folic acid (1 μM) substrate solutions were prepared by diluting with pH 5.5 buffer. Next, the test compounds and folic acid (1 μM) substrate solution+positive control inhibitor (pemetrexed, 50 μM) were prepared. For the solution without inhibitor, DMSO was diluted with corresponding substrate solution to get the working incubation solution.
For the solution with inhibitor, the pre-incubation solution was prepared by adding the positive control inhibitor (pemetrexed, 50 μM) in pH 5.5 buffer. For the solution without inhibitor, DMSO was diluted with pH 5.5 buffer and used as the vehicle control.
When the 8-10 day Caco-2 cultured cells reached confluence and were differentiated, they were ready to be used for transport studies. The Caco-2 plate was removed from the incubator, and the medium was removed from the 24-well Plates. Next, cells were washed 3 times with 300 μL of pre-warmed pH 5.5 buffer. Then, 300 μL of pre-incubation solution was added into each well and the plate was placed at 37° C. for 30 minutes. The assay was performed in duplicate. After 30 minutes pre-incubation, the pre-incubation solution was aspirated, and 300 μL of pre-warmed working incubation solution was added to start the transporter assay. After 6 minutes incubation, cells were washed by quickly adding/aspirating 300 μL of ice-cold pH 5.5 buffer 4 times. The pH 5.5 buffer was removed and 300 μL of pure water was added into each well. Freeze-thaw in liquid nitrogen and 37° C. incubator was repeated for 3 times to lyse cells. After, centrifugation at 3,300 g was performed for 30 seconds. Next, 50 μL of supernatant was transferred to 200 μL methanol or acetonitrile containing internal standard and centrifuged at 3,300 g for 30 minutes. 200 μL aliquots of the supernatants were used for LC-MS/MS analysis. Standards were treated the same as samples.
A BCA Kit was used to determine the protein content for each well. Bovine serum albumin at 2, 1, 0.5, 0.25, 0.125, 0.0625, 0.0313, 0.0156, 0.00781 and 0.00391 mg/mL was prepared in Phosphate Buffer Saline (PBS, pH 7.4). 10 μL of supernatant was mixed from the previous step with the same volume of PBS. 20 μL of standard or test sample was added into 96-well clear plate and mixed with 200 μL working reagent. After 30 minutes incubation at 37° C., the absorbance at 562 nm was measured on the microplate reader.
Standard-curves: prepared 200 μM DMSO Folic acid solution, samples of 1000 nm, 300 nm, 100 nm, 30 nM, and 10 nM prepared using a PH 5.5 buffer, and a PH 5.5 buffer containing 50 μM of pemetrexed, respectively.
All calculations were carried out using Microsoft Excel. Peak areas were determined from extracted ion chromatograms. Uptake rate, in unit of pmol/mg protein/min, is calculated using the following equation: Uptake rate=Conc./(Protein×Time); Conc. is concentration of drug in cell lysate (nM), Protein is the protein concentration of cell lysate (mg/mL), and Time is the incubation time (minute). Uptake ratio is calculated using the following equation: Uptake ratio=Uptake rate without inhibitor/Uptake rate with inhibitor. Note: The compound was considered as a potential substrate of a particular transporter when the uptake ratio was greater than 2.

[3] = molecular target: T1, Folate Uptake Transporter (PCFT) in Caco2 cells; experiment: as above; format: in vitro ADME; settings: positive control, test conc. 0.01 μM, radiolabelled
[4] = [3H]-folic acid 10 nM, 30 min pre-incubation, 6 min incubation

## Cc1ccc(NC(=O)N2Cc3[nH]cnc3CC2c2nc(-c3ccc4c(c3)OCO4)no2)cc1 (stereo not shown) [MPOL_D_1, 6-(3-(benzo[d][1,3]dioxol-5-yl)-1,2,4-oxadiazol-5-yl)-N-(p-tolyl)-3,4,6,7-tetrahydro-5H-imidazo[4,5-c]pyridine-5-carboxamide]
[1]; [4]
  inhibition at 50 µM: 25.5%
[1]; pH 5.5
  effect on folate transport / uptake: inhibit folate uptake
[1]; test conc. 50 μM, [3H]-folic acid 10 nM, pH 5.5, 30 min pre-incubation, 6 min incubation
  Percentage inhibition (%): 25.25%
[2]
  cell permeability: highly permeable
  Uptake Ratio(−Inhibitor/+Inhibitor): 1.02

## Cc1cccc(-c2noc(C3Cc4nc[nH]c4CN3C(=O)Nc3cccc(F)c3)n2)c1 (stereo not shown) [MPOL_D_2, N-(3-fluorophenyl)-6-(3-(m-tolyl)-1,2,4-oxadiazol-5-yl)-3,4,6,7-tetrahydro-5H-imidazo[4,5-c]pyridine-5-carboxamide]
[1]; [4]
  inhibition at 50 µM: -18.7%
[1]; pH 5.5
  effect on folate transport / uptake: promoted folate transport
[2]
  cell permeability: highly permeable
  Uptake Ratio(−Inhibitor/+Inhibitor): 0.86

## Nc1nc2[nH]cc(CCc3ccc(C(=O)N[C@@H](CCC(=O)O)C(=O)O)cc3)c2c(=O)[nH]1 [Pemetrexed, reference compound]
[1]; [4]
  inhibition at 50 µM: 62.4%

## Folic acid [3,5,7,9-3H] sodium salt
[3]; DMSO (no inhibitor)
  Uptake Rate (pmol/mg protein/min): 0.02 pmol/mg protein/min
[3]; pemetrexed 50 μM
  Uptake Ratio(−Inhibitor/+Inhibitor): 2.66
[3]; with pemetrexed 50 μM
  Uptake Rate (pmol/mg protein/min): 0.01 pmol/mg protein/min
